Assay results taken from patent publication US20230104936A1, “TRPML MODULATORS” (Casma Therapeutics, Inc., priority 2019, published 2023).

What follows are compounds tested on TFEB (assay: TFEB nuclear translocation assay, HeLa wt cells). Conditions: Homo sapiens, HeLa, 2 h, 2 hrs compound treatment, Table 1 does not say HeLa wt or TRPML1 KO.
Type: cell-based
Outline: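 HeLa wt cells were treated with compound for 2 hrs at 37° C, then fixed in 4% PFA and immunostained for TFEB with an Alexa 488 secondary and Hoechst nuclear counterstain. Automated epifluorescence imaging at ×20 gave the ratio of nuclear TFEB intensity to a perinuclear ring region, from which AC50 was derived.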

| Compound | AC50 [µM] |
| --- | --- |
| O=S(=O)(Nc1ccccc1N1CCC(c2ccc(Cl)cc2F)CC1)c1cccc(F)c1F [Compound A-97, N-{2-[4-(4-chloro-2-fluorophenyl)piperidin-1-yl]phenyl}-2,3-difluorobenzene-1-sulfonamide] | ≥ 10 |
| CS(=O)(=O)c1ccc(S(=O)(=O)Nc2ccccc2N2CCC(c3ccc(Cl)cc3F)CC2)cc1 [Compound A-98, N-{2-[4-(4-chloro-2-fluorophenyl)piperidin-1-yl]phenyl}-4-methanesulfonylbenzene-1-sulfonamide] | ≤ 2 |
| COc1ccc(S(=O)(=O)Nc2ccccc2N2CCC(c3ccc(Cl)cc3F)CC2)cc1 [Compound A-99, N-{2-[4-(4-chloro-2-fluorophenyl)piperidin-1-yl]phenyl}-4-methoxybenzene-1-sulfonamide] | ≤ 2 |
| CS(=O)(=O)c1ccc(S(=O)(=O)Nc2ccccc2N2CCC(c3ccc(F)cc3F)CC2)cc1 [Compound A-100, N-{2-[4-(2,4-difluorophenyl)piperidin-1-yl]phenyl}-4-methanesulfonylbenzene-1-sulfonamide] | ≤ 2 |
| N#Cc1ccc(S(=O)(=O)Nc2ccccc2N2CCC(c3ccc(Cl)cc3F)CC2)cc1 [Compound A-101, N-{2-[4-(4-chloro-2-fluorophenyl)piperidin-1-yl]phenyl}-4-cyanobenzene-1-sulfonamide] | 2.01 to 8 |
| Cc1ccc(S(=O)(=O)Nc2ccccc2N2CCC(c3ccc(Cl)cc3F)C2)cc1 (stereo not drawn) [Compound A-102, N-{2-[3-(4-chloro-2-fluorophenyl)pyrrolidin-1-yl]phenyl}-4-methylbenzene-1-sulfonamide] | 2.01 to 8 |
| Cc1ccc(S(=O)(=O)Nc2ccccc2N2CCC(c3ccc(Cl)cn3)CC2)cc1 [Compound A-103, N-{2-[4-(5-chloropyridin-2-yl)piperidin-1-yl]phenyl}-4-methylbenzene-1-sulfonamide] | ≤ 2 |
| CN(C)S(=O)(=O)c1ccc(S(=O)(=O)N(C)c2ccccc2N2CCC(c3ccc(Cl)cc3F)CC2)cc1 [Compound A-104, N1-{2-[4-(4-chloro-2-fluorophenyl)piperidin-1-yl]phenyl}-N1,N4,N4-trimethylbenzene-1,4-disulfonamide] | ≤ 2 |
| Cc1noc(NS(=O)(=O)c2ccc(S(=O)(=O)N(C)C)cc2)c1C1CCN(c2ccc(Cl)cc2F)CC1 [Compound A-105, N4-{4-[1-(4-chloro-2-fluorophenyl)piperidin-4-yl]-3-methyl-1,2-oxazol-5-yl}-N1,N1-dimethylbenzene-1,4-disulfonamide] | ≥ 10 |
| O=S(=O)(Nc1ccccc1N1CCC(c2ccc(Cl)cc2F)CC1)c1ccccc1CO [Compound A-106, N-{2-[4-(4-chloro-2-fluorophenyl)piperidin-1-yl]phenyl}-2-(hydroxymethyl)benzene-1-sulfonamide] | ≥ 10 |
| Cc1ccc(S(=O)(=O)N(C)c2ccccc2N2CCC(c3ccc(Cl)cc3F)CC2)cc1 [Compound A-107, N-{2-[4-(4-chloro-2-fluorophenyl)piperidin-1-yl]phenyl}-N,4-dimethylbenzene-1-sulfonamide] | ≥ 10 |
| CN(C)S(=O)(=O)c1ccc(NS(=O)(=O)c2ccccc2N2CCC(c3ccc(Cl)cc3F)CC2)cc1 [Compound A-108, 4-((2-(4-(4-chloro-2-fluorophenyl)piperidin-1-yl)phenyl)sulfonamido)-N,N-dimethylbenzenesulfonamide] | ≤ 2 |
| CN(C)S(=O)(=O)c1ccc(S(=O)(=O)Nc2cccnc2N2CCC(c3ccc(Cl)cc3F)CC2)cc1 [Compound A-109, N4-{2-[4-(4-chloro-2-fluorophenyl)piperidin-1-yl]pyridin-3-yl}-N1,N1-dimethylbenzene-1,4-disulfonamide] | ≤ 2 |
| COc1ccc(S(=O)(=O)Nc2cccnc2N2CCN(c3ncc(Cl)cc3F)CC2)cc1 [Compound A-110, N-{2-[4-(5-chloro-3-fluoropyridin-2-yl)piperazin-1-yl]pyridin-3-yl}-4-methoxybenzene-1-sulfonamide] | ≥ 10 |
| Cc1ccc(NS(=O)(=O)c2ccccc2N2CCC(c3ccc(Cl)cc3F)CC2)cc1 [Compound A-111, 2-(4-(4-chloro-2-fluorophenyl)piperidin-1-yl)-N-(p-tolyl)benzenesulfonamide] | ≥ 10 |
| CN(C)S(=N)(=O)c1ccc(S(=O)(=O)Nc2ccccc2N2CCC(c3ccc(Cl)cc3F)CC2)cc1 (stereo not drawn) [Compound A-112, 4-({2-[4-(4-chloro-2-fluorophenyl)piperidin-1-yl]phenyl}sulfamoyl)-N,N-dimethylbenzene-1-sulfonoimidamide] | ≤ 2 |
| O=S(=O)(Nc1cccc(N2CCC(c3ccc(Cl)cc3F)CC2)c1)c1ccccc1F [Compound A-114, N-{3-[4-(4-chloro-2-fluorophenyl)piperidin-1-yl]phenyl}-2-fluorobenzene-1-sulfonamide] | ≥ 10 |
| CN(C)S(=O)(=O)c1ccc(S(=O)(=O)Nc2ccccc2N2CCC(O)(c3ccc(Cl)cc3F)CC2)cc1 [Compound A-115, N4-{2-[4-(4-chloro-2-fluorophenyl)-4-hydroxypiperidin-1-yl]phenyl}-N1,N1-dimethylbenzene-1,4-disulfonamide] | ≤ 2 |

| Compound | AC50 [µM] |
| --- | --- |
| O=S(=O)(Nc1cccnc1N1CCN(c2ncc(Cl)cc2F)CC1)c1ccc(OC(F)(F)F)cc1 [Compound A-116, N-{2-[4-(5-chloro-3-fluoropyridin-2-yl)piperazin-1-yl]pyridin-3-yl}-4-(trifluoromethoxy)benzene-1-sulfonamide] | ≥ 10 |
| COc1ccc(S(=O)(=O)Nc2cccnc2N2CCN(c3ccc(C#N)cc3F)CC2)cc1 [Compound A-117, N-{2-[4-(4-cyano-2-fluorophenyl)piperazin-1-yl]pyridin-3-yl}-4-methoxybenzene-1-sulfonamide] | ≥ 10 |
| COc1ccc(S(=O)(=O)Nc2ccccc2N2CCC(c3ccc(F)cc3F)CC2)nc1 [Compound A-118, N-{2-[4-(2,4-difluorophenyl)piperidin-1-yl]phenyl}-5-methoxypyridine-2-sulfonamide] | 2.01 to 8 |
| Cc1ccc(S(=O)(=O)Nc2ccccc2N2[C@@H]3CC[C@H]2C[C@H](c2ccccc2F)C3)cc1 [Compound A-119, N-{2-[(1R,3S,5S)-3-(2-fluorophenyl)-8-azabicyclo[3.2.1]octan-8-yl]phenyl}-4-methylbenzene-1-sulfonamide] | ≤ 2 |
| Cc1ccc(S(=O)(=O)Nc2ccccc2N2[C@@H]3CC[C@H]2C[C@@H](c2ccccc2F)C3)cc1 [Compound A-120, N-{2-[(1R,3R,5S)-3-(2-fluorophenyl)-8-azabicyclo[3.2.1]octan-8-yl]phenyl}-4-methylbenzene-1-sulfonamide] | ≤ 2 |
| C[C@@H]1CN(c2ccccc2NS(=O)(=O)c2ccc(S(=O)(=O)N(C)C)cc2)C[C@H](C)N1c1ccc(Cl)cn1 [Compound A-121, N4-{2-[(3R,5S)-4-(5-chloropyridin-2-yl)-3,5-dimethylpiperazin-1-yl]phenyl}-N1,N1-dimethylbenzene-1,4-disulfonamide] | ≤ 2 |
| O=S(=O)(Nc1cccc(N2CCC(c3ccc(Cl)cc3F)CC2)c1)c1cccc(F)c1 [Compound A-122, N-{3-[4-(4-chloro-2-fluorophenyl)piperidin-1-yl]phenyl}-3-fluorobenzene-1-sulfonamide] | ≥ 10 |
| COc1ccc(S(=O)(=O)Nc2ccccc2N2CCC(c3ccc(F)cc3F)CC2)cn1 [Compound A-123, N-{2-[4-(2,4-difluorophenyl)piperidin-1-yl]phenyl}-6-methoxypyridine-3-sulfonamide] | 2.01 to 8 |
| CS(=O)(=O)c1ccc(S(=O)(=O)Nc2ccccc2N2CCC(c3c(F)cccc3F)CC2)cc1 [Compound A-124, N-{2-[4-(2,6-difluorophenyl)piperidin-1-yl]phenyl}-4-methanesulfonylbenzene-1-sulfonamide] | ≤ 2 |
| O=S(=O)(Nc1cccc(N2CCC(c3ccc(Cl)cc3F)CC2)c1)c1ccc(F)cc1 [Compound A-128, N-{3-[4-(4-chloro-2-fluorophenyl)piperidin-1-yl]phenyl}-4-fluorobenzene-1-sulfonamide] | ≥ 10 |
| CN(C)S(=O)(=O)c1ccc(S(=O)(=O)Nc2cc(Cl)nnc2N2CCC(c3ccc(Cl)cc3F)CC2)cc1 [Compound A-129, N4-{6-chloro-3-[4-(4-chloro-2-fluorophenyl)piperidin-1-yl]pyridazin-4-yl}-N1,N1-dimethylbenzene-1,4-disulfonamide] | ≥ 10 |
| COc1ccc(S(=O)(=O)Nc2nccnc2N2CCN(c3ncc(Cl)cc3F)CC2)cc1 [Compound A-130, N-{3-[4-(5-chloro-3-fluoropyridin-2-yl)piperazin-1-yl]pyrazin-2-yl}-4-methoxybenzene-1-sulfonamide] | ≥ 10 |
| CS(=O)(=O)c1ccc(S(=O)(=O)Nc2ccccc2N2CCC(c3ncc(F)cc3F)CC2)cc1 [Compound A-131, N-{2-[4-(3,5-difluoropyridin-2-yl)piperidin-1-yl]phenyl}-4-methanesulfonylbenzene-1-sulfonamide] | ≤ 2 |
| CS(=O)(=O)c1ccc(S(=O)(=O)Nc2ccccc2N2CCC(c3c(F)cc(F)cc3F)CC2)cc1 [Compound A-132, 4-methanesulfonyl-N-{2-[4-(2,4,6-trifluorophenyl)piperidin-1-yl]phenyl}benzene-1-sulfonamide] | ≤ 2 |
| Cc1ccc(S(=O)(=O)c2ccccc2N2CCC(c3ccc(Cl)cc3F)CC2)cc1 [Compound A-133] | ≥ 10 |
| CN(C)S(=O)(=O)c1ccc(S(=O)(=O)Nc2cccc(N3CCC(c4ccc(Cl)cc4F)CC3)n2)cc1 [Compound A-134, N4-{6-[4-(4-chloro-2-fluorophenyl)piperidin-1-yl]pyridin-2-yl}-N1,N1-dimethylbenzene-1,4-disulfonamide] | ≥ 10 |
| COc1ccc(S(=O)(=O)Nc2ncccc2N2CCN(c3ncc(Cl)cc3F)CC2)cc1 [Compound A-135, N-{3-[4-(5-chloro-3-fluoropyridin-2-yl)piperazin-1-yl]pyridin-2-yl}-4-methoxybenzene-1-sulfonamide] | ≥ 10 |
| O=S(=O)(Nc1ccccc1N1CCC(c2ccc(F)cc2F)CC1)c1ccc(C(F)F)nc1 [Compound A-136, 6-(difluoromethyl)-N-{2-[4-(2,4-difluorophenyl)piperidin-1-yl]phenyl}pyridine-3-sulfonamide] | ≤ 2 |
